According to US10724099B2, “Multiplex methods to assay mixed cell populations simultaneously” (The Broad Institute, Inc., priority 2012, dated 2020):

Key:
[1] = tested on: 100 human cancer cell lines; assay: PRISM, 100 barcoded cancer cell lines in mixture; type: cell-based; conditions: for reduction in cell viability in BRAF V600E mutant lines compared to BRAF wild-type lines: mixture, day 5
Procedure: PRISM detection was performed as follows. Genomic DNA from cell lysates was amplified by PCR using primers Biotin pLENTR4 (5′-Biotin-[sequence]-3′; SEQ ID NO:3) and pLENTF1 (5′-[sequence]-[sequence]-3′; SEQ ID NO:4). […] PCR without genomic DNA was hybridized with beads to serve as background control; signal for each bead was subtracted from each sample measurement. DMSO-treated cell mixtures were used as reference control for scaling of each cell line signal at the conclusion of each experiment (viability=100 for each cell line).
To investigate cancer vulnerabilities that are common in multiple cancer types and to examine the extent to which assaying cells in mixture may be complicated by cell-cell interactions, a panel of 100 barcoded cell lines was created comprising 18 different cancer types, and these were challenged in mixture with each of 43 anticancer compounds (including both targeted and general cytotoxic agents) in 8-point dose response. Each compound was represented by 3,200 functional measurements (100 cell lines×8 doses×4 replicates). The assays were performed as follows. Frozen mixtures of barcoded cell lines were thawed (day −2) and replated (day −1) into 384-well microtiter plates. On day 0, compounds suspended in DMSO were pinned into cultures to achieve final concentrations of 0.0012, 0.0049, 0.019, 0.078, 0.3125, 1.25, 5, or 20 μg ml-1. On day 5, cells were washed with phosphate-buffered saline and lysed for 60 minutes at 60° C. in 20 mM Tris-HCl (pH 8.4), 50 mM KCl, 0.45% IGEPAL CA-630 (Sigma cat. 18896), 0.45% Tween-20 (Sigma cat. P9416), and 10% proteinase K (Qiagen cat. 19133). Proteinase K was inactivated by a 15-minute incubation at 95° C.

[2] = tested on: 100 human cancer cell lines; assay: OPTICAL (Opera enumeration of nuclei), 100 cell lines grown individually; type: cell-based; conditions: for reduction in cell viability in BRAF V600E mutant lines compared to BRAF wild-type lines: OPTICAL (Nuclei), individual lines, day 3
Source text: (§1) To quantitatively compare the 100-cell line PRISM performance to traditional methods, PRISM was compared to the activity of 23 compounds across the same 100 cell lines grown individually, as recently reported (using either ATP content measurements using the CellTiterGlo (CTG), or direct enumeration of cell nuclei using an optical fluorescent imaging method (PerkinElmer Opera system (hereafter, OPTICAL)) and thus served as a gold standard against which PRISM could be compared (Barretina et al., Nature 483, 603 (Mar. 29, 2012)). The same parental cell lines were used in all three methods; in the PRISM method, a barcoded “daughter” line was generated from the common parental cell line. Compounds used in assays were replica-plated from the same source. The cell lines grown individually were assayed at day 3 following compound treatment, whereas the 100-cell line PRISM mixture was analyzed at day 5.
(§2) To compare the three methods for measuring cell viability, the AUC (Area Under the Curve, measured from the viability vs. logarithm of drug concentration curve) was calculated for each combination of compound and cell line and for each viability measurement method. The CTG and OPTICAL methods were generally correlated with Pearson R=0.801. CTG and PRISM correlated with R=0.663, and OPTICAL and PRISM correlated with R=0.720. […] To investigate whether particular cell lines or specific compounds were disproportionately responsible for divergent predictive results between PRISM and the other methods, we examined the ratio between […] or […]. […] In these rare cases, either the different assay conditions (5-day assay with PRISM, 3-day assay with OPTICAL and CTG) or the assay of cells in mixture might explain the discrepancy. Overall, however, PRISM appears to perform comparably to these other methods in global determinations of sensitivity to compounds in these 100 cell lines.

[3] = tested on: 100 human cancer cell lines; assay: CTG (CellTiterGlo ATP), 100 cell lines grown individually; type: cell-based; conditions: for reduction in cell viability in BRAF V600E mutant lines compared to BRAF wild-type lines: CTG (ATP), individual lines, day 3
Source text: as §1, §2

HCT-116 cells [4] = assay: DNA content by propidium iodide flow cytometry; type: cell-based; conditions: 10 μM, 24 hours or 48 hours
Procedure: In addition, HCT-116 cells were treated with 10 μM of DMSO, or the Aurora Kinase Inhibitors barasertib, GSK1070916, MLN8054, BRD-7880, or tozasertib. 24 hours or 48 hours following treatment, cells were stained with propidium iodide and DNA content per cell was assessed using a Becton Dickinson LSR II flow cytometer.

HCT-116 cells [5] = assay: Western blot phosphoserine 10-histone H3; type: cell-based; conditions: 10 μM
Procedure: Finally, HCT-116 cells were treated with 10 μM of DMSO, barasertib, GSK1070916, MLN8054, BRD-7880, or tozasertib. Cells lysates were probed on Western blot using antibodies (diluted 1:1000) to histone H3 (Abcam cat. no. 24834), phosphoserine 10-histone H3 (Cell Signaling Technology cat no. 3377SS), aurora kinase B (Millipore cat. no. 04-1036), or beta-actin (Santa Cruz Biotechnology cat. no. sc-47778) and detected using a LI-COR Odyssey analyzer.

[6] = tested on: 25 barcoded lung adenocarcinoma cell lines; assay: PRISM, mixture of 25 barcoded lung adenocarcinoma cell lines; type: cell-based, human; conditions: for viability relative to DMSO-treated control (relative inhibition profile): cell lines in mixture, 0-10 μM (puromycin 0-10 μg/ml), day 5
Procedure: PRISM detection was performed as follows. Genomic DNA from cell lysates was amplified by PCR using primers Biotin pLENTR4 (5′-Biotin-[…]-3′; SEQ ID NO:3) and pLENTF1 (5′-[…]-[…]-3′; SEQ ID NO:4). PCR product was hybridized to Luminex beads with covalently attached antisense barcodes, and streptavidin-phycoerythrin addition, washing, and detection on Luminex FlexMap machines was performed as previously described (Peck et al., Genome Biol 7, R61 (2006)). PCR without genomic DNA was hybridized with beads to serve as background control; signal for each bead was subtracted from each sample measurement. DMSO-treated cell mixtures were used as reference control for scaling of each cell line signal at the conclusion of each experiment (viability=100 for each cell line).
These lines were barcoded as described above, and equal numbers of cells of each cell lines were mixed together. Cell mixtures were plated in 384-well plates on day −1. On day 0, mixtures were challenged with compounds or vehicle, and on day 5 genomic DNA was harvested and barcodes quantitated. Barcode signal background was determined using beads hybridizing to PCR reactions lacking genomic DNA templates and was subtracted from all measurements. To account for different doubling times of cell lines and different baseline signals for each cell line, the barcode signal for each cell line was scaled to the signal of the vehicle-treated control at the end of the experiment (PRISM schema shown in FIG. 1A), so that the relative growth inhibition of each cell line was assessed.

[7] = tested on: 24 barcoded human lung adenocarcinoma cell lines; assay: In vivo PRISM, xenograft of 24 barcoded lung adenocarcinoma cell lines in NSG mice; conditions: 50 mg/kg once daily by gavage for 16 days, vs vehicle
Source text: The tumors were than resected, and the abundance of each cell line measured by PRISM.

308 kinases = assay: Kinase activity profiling, Millipore KinaseProfiler; type: biochemical

Compound | reduction in cell viability in BRAF V600E mutant lines compared to BRAF wild-type lines [1] | reduction in cell viability in BRAF V600E mutant lines compared to BRAF wild-type lines [2] | reduction in cell viability in BRAF V600E mutant lines compared to BRAF wild-type lines [3] | DNA content per cell (HCT-116 cells [4]) | phosphorylation of serine 10 on histone H3 (HCT-116 cells [5]) | viability relative to DMSO-treated control (relative inhibition profile) [6] | also measured
Cn1cnc2c(F)c(Nc3ccc(Br)cc3Cl)c(C(=O)NOCCO)cc21 [AZD6244] | only a trend towards this reduction | only a trend towards this reduction | significant reduction |  |  |  | 
CCn1cc(-c2ccnc3[nH]c(-c4cccc(CN(C)C)c4)cc23)c(-c2ccc(NC(=O)N(C)C)cc2)n1 [GSK1070916] |  |  |  | increased DNA content | decrease phosphorylation of serine 10 on histone H3 |  | 
O=C(O)c1ccc(Nc2ncc3c(n2)-c2ccc(Cl)cc2C(c2c(F)cccc2F)=NC3)cc1 [MLN8054] |  |  |  | increased DNA content | decrease phosphorylation of serine 10 on histone H3 |  | 
COc1cc(N2CCC(N3CCN(C)CC3)CC2)ccc1Nc1ncc(Cl)c(Nc2ccccc2S(=O)(=O)C(C)C)n1 [NVP-TAE-684] |  |  |  |  |  | selective killing was observed of H3122, but not H2228 | 
CCCS(=O)(=O)Nc1ccc(F)c(C(=O)c2c[nH]c3ncc(Cl)cc23)c1F [PLX4720] | significant (two-tailed t-test, p<0.05) reductions in cell viability | significant (two-tailed t-test, p<0.05) reductions in cell viability | significant (two-tailed t-test, p<0.05) reductions in cell viability |  |  |  | 
Cn1c(Nc2ccc(C(F)(F)F)cc2)nc2cc(Oc3ccnc(-c4ncc(C(F)(F)F)[nH]4)c3)ccc21 [RAF-265] | a similar reduction was seen only with PRISM |  |  |  |  |  | 
C#Cc1cccc(Nc2ncnc3cc(OCCOC)c(OCCOC)cc23)c1 [erlotinib] |  |  |  |  |  | selective and dose-dependent decrease of four EGFR-mutant cell lines | sensitivity of EGFR-mutant lines compared to EGFR wild-type lines ([1]; did not reach statistical significance): trend towards increased sensitivity; sensitivity of EGFR-mutant lines compared to EGFR wild-type lines ([2]; OPTICAL, did not reach statistical significance): trend towards increased sensitivity; sensitivity of EGFR-mutant lines compared to EGFR wild-type lines ([3]; CTG, did not reach statistical significance): trend towards increased sensitivity; sensitivity of HCC2935 among the 4 EGFR-mutant lines in vitro ([6]; HCC2935, FIG. 1b): least sensitive; representation of the detectable 19 wt-EGFR lines [7]: mostly unchanged or increased in representation
COc1ccc(C[C@H](N)C(=O)N[C@H]2[C@@H](O)[C@H](n3cnc4c(N(C)C)ncnc43)O[C@@H]2CO)cc1 [puromycin] |  |  |  |  |  | uniform cell death across the cell line mixture | 
CNC(=O)c1cc(Oc2ccc(NC(=O)Nc3ccc(Cl)c(C(F)(F)F)c3)cc2)ccn1 [sorafenib] | did not demonstrate significant reductions | did not demonstrate significant reductions | did not demonstrate significant reductions |  |  |  | 
Cc1cc(Nc2cc(N3CCN(C)CC3)nc(Sc3ccc(NC(=O)C4CC4)cc3)n2)[nH]n1 [tozasertib] |  |  |  | increased DNA content | decrease phosphorylation of serine 10 on histone H3 |  | significant inhibition (defined as activity<25% control) across 308 kinases (308 kinases): inhibited aurora kinases A, B, and C, in addition to several other kinases
